Key:
[1] = test system: MDA-MB-231; assay: Cell cycle arrest in human MDA-MB-231 cells assessed as S phase cells at 100 uM incubated for 24 hrs by PI staining based flow cytometric analysis (reference value: 29.9%); type: functional
[2] = test system: MDA-MB-231; assay: Cell cycle arrest in human MDA-MB-231 cells assessed as G2 phase cells at 100 uM incubated for 72 hrs by PI staining based flow cytometric analysis (reference value: 18.6%); type: functional
[3] = test system: MDA-MB-231; assay: Cell cycle arrest in human MDA-MB-231 cells assessed as G1 phase cells at 100 uM incubated for 48 hrs by PI staining based flow cytometric analysis (reference value: 51.5%); type: functional
[4] = test system: MDA-MB-231; assay: Cell cycle arrest in human MDA-MB-231 cells assessed as G2 phase cells at 100 uM incubated for 48 hrs by PI staining based flow cytometric analysis (reference value: 18.6%); type: functional
[5] = test system: MCF7; assay: Antiproliferative activity against human MCF7 cells assessed as reduction in cell viability incubated for 96 hrs by MTT assay; conditions: MCF7, 96 h
[6] = target: Cell division cycle protein 20 homolog (Homo sapiens, UniProt Q12834); assay: Binding affinity human CDC20 assessed as dissociation constant by SPR analysis
[7] = Cytotoxicity against human L02 cells assessed as reduction in cell viability incubated for 96 hrs by MTT assay; type: toxicity, cell-based
[8] = test system: MDA-MB-231; assay: Cell cycle arrest in human MDA-MB-231 cells assessed as S phase cells at 100 uM incubated for 72 hrs by PI staining based flow cytometric analysis (reference value: 29.9%); type: functional
[9] = test system: A549; assay: Antiproliferative activity against human A549 cells assessed as reduction in cell viability incubated for 96 hrs by MTT assay; conditions: A549, 96 h
[10] = test system: MDA-MB-468; assay: Antiproliferative activity against human MDA-MB-468 cells assessed as reduction in cell viability incubated for 96 hrs by MTT assay; conditions: MDA-MB-468, 96 h
[11] = test system: MDA-MB-231; assay: Induction of apoptosis in human MDA-MB-231 cells assessed as necrotic cells at 100 uM incubated for 48 hrs by Annexin V-FITC/PI staining based flow cytometric analysis (reference value: 1.63%); type: functional
[12] = test system: MDA-MB-231; assay: Cell cycle arrest in human MDA-MB-231 cells assessed as G1 phase cells at 100 uM incubated for 48 hrs by PI staining based flow cytometric analysis (reference value: 76.7%); type: functional
[13] = test system: MDA-MB-231; assay: Cell cycle arrest in human MDA-MB-231 cells assessed as G2 phase cells at 100 uM incubated for 24 hrs by PI staining based flow cytometric analysis (reference value: 18.6%); type: functional
[14] = test system: MDA-MB-231; assay: Cell cycle arrest in human MDA-MB-231 cells assessed as G1 phase cells at 100 uM incubated for 72 hrs by PI staining based flow cytometric analysis (reference value: 51.5%); type: functional
[15] = test system: MDA-MB-231; assay: Cell cycle arrest in human MDA-MB-231 cells assessed as G1 phase cells at 100 uM incubated for 24 hrs by PI staining based flow cytometric analysis (reference value: 51.5%); type: functional
[16] = test system: MDA-MB-231; assay: Induction of apoptosis in human MDA-MB-231 cells assessed as late apoptotic cells at 100 uM incubated for 48 hrs by Annexin V-FITC/PI staining based flow cytometric analysis (reference value: 1.06%); type: functional
[17] = test system: MDA-MB-231; assay: Antiproliferative activity against human MDA-MB-231 cells assessed as reduction in cell viability incubated for 96 hrs by MTT assay; conditions: MDA-MB-231, 96 h
[18] = test system: MDA-MB-231; assay: Cell cycle arrest in human MDA-MB-231 cells assessed as S phase cells at 100 uM incubated for 48 hrs by PI staining based flow cytometric analysis (reference value: 29.9%); type: functional
[19] = test system: MDA-MB-231; assay: Cell cycle arrest in human MDA-MB-231 cells assessed as S phase cells at 100 uM incubated for 48 hrs by PI staining based flow cytometric analysis (reference value: 16.0%); type: functional
[20] = test system: MDA-MB-231; assay: Induction of apoptosis in human MDA-MB-231 cells assessed as viable cells at 100 uM incubated for 48 hrs by Annexin V-FITC/PI staining based flow cytometric analysis (reference value: 95.10%); type: functional; conditions: read-out: Activity
[21] = test system: MDA-MB-231; assay: Cell cycle arrest in human MDA-MB-231 cells assessed as G2 phase cells at 100 uM incubated for 48 hrs by PI staining based flow cytometric analysis (reference value: 7.3%); type: functional
[22] = test system: MDA-MB-231; assay: Induction of apoptosis in human MDA-MB-231 cells assessed as early apoptotic cells at 100 uM incubated for 48 hrs by Annexin V-FITC/PI staining based flow cytometric analysis (reference value: 2.25 %); type: functional

Cell division cycle protein 20 homolog, sequence (Q12834 whole entry): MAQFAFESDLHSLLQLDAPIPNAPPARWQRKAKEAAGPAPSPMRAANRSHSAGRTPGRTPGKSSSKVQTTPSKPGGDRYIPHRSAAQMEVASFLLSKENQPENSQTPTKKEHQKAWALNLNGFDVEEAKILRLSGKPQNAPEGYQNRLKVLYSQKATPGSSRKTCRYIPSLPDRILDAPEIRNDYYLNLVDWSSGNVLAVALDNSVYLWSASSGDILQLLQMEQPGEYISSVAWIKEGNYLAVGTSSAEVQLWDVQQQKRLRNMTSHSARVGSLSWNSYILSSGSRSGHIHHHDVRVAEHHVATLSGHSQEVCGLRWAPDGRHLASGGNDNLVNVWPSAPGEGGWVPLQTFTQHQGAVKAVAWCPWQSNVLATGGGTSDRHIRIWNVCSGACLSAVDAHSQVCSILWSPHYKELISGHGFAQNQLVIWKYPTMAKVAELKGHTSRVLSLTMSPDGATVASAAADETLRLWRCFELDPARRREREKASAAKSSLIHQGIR

`Cc1ncc([N+](=O)[O-])n1CCOC(=O)NC(Nc1ncccn1)C(Cl)(Cl)Cl` (configuration not stated) showed an Activity [1] of 45.1%, an Activity [2] of 36.2% and an Activity [3] of 48.8%. For the same compound, the Activity [4] was 27.7%, the IC50 [5] was 109 µM and the Kd [6] was 172 µM. For the same compound, the IC50 at 96 h [7] was greater than 200 µM, the Activity [8] was 24.6% and the IC50 [9] was 114 µM. It also gave an IC50 [10] of 83.4 µM, an Activity [11] of 2.43% and an Activity [12] of 50.3%. For the same compound, the Activity [13] was 26.1%, the Activity [14] was 39.2% and the Activity [15] was 28.8%. For the same compound, the Activity [16] was 3.12%, the IC50 [17] was 139 µM and the Activity [18] was 23.5%. For the same compound, the Activity [19] was 38%, the viability at 100 µM [20] was 91.2% and the Activity [21] was 11.7%. For the same compound, the Activity [22] was 3.22%.
